Experimental data from the supplement of paper PMC6045584.
± gives the standard deviation of the averaged measurements.

Tests used:
[1] = compound: CCC1=C[C@@H]2CN(C1)Cc1c([nH]c3ccccc13)[C@@](C(=O)OC)(c1cc3c(cc1OC)N(C)[C@H]1[C@@](O)(C(=O)OC)[C@H](OC(C)=O)[C@]4(CC)C=CCN5CC[C@]31[C@@H]54)C2 [VINORELBINE]; assay: surviving fraction relative to DMSO-only wells; higher = less growth inhibition; conditions: exposure time: 5 days
Method in brief: (§1)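 Viability values are CellTiter-Glo luminescence readings, given as surviving fraction against the median of DMSO-only wells. The readings were taken after 10 minutes at room temperature, following five days of continuous exposure to inhibitors at 0.5, 1, 5, 10, 50, 100, 500 and 1000 nM that began 24 hours after log-phase tumour cell lines were seeded at 250–500 cells per well in 384-well plates. Every line was screened three times and kept only if replicate Pearson r >0.7 and median Z' >0.3.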

[2] = compound: COc1cc([C@@H]2c3cc4c(cc3[C@@H](O[C@@H]3O[C@@H]5CO[C@@H](C)O[C@H]5[C@H](O)[C@H]3O)[C@H]3COC(=O)[C@H]23)OCO4)cc(OC)c1O [ETOPOSIDE]; assay: as above; conditions: exposure time: 5 days
Method in brief: as §1

Row | Test System | surviving fraction ([1]; 0.5 nM) | surviving fraction ([1]; 1 nM) | surviving fraction ([1]; 5 nM) | surviving fraction ([1]; 10 nM) | surviving fraction ([1]; 50 nM) | surviving fraction ([1]; 100 nM) | surviving fraction ([1]; 500 nM) | surviving fraction ([1]; 1000 nM) | surviving fraction ([2]; 0.5 nM) | surviving fraction ([2]; 1 nM) | surviving fraction ([2]; 5 nM) | surviving fraction ([2]; 10 nM) | surviving fraction ([2]; 50 nM) | surviving fraction ([2]; 100 nM) | surviving fraction ([2]; 500 nM) | surviving fraction ([2]; 1000 nM)
1 | ASKA SYNOVIAL | 0.912 ± 0.086 | 0.846 ± 0.075 | 0.43 ± 0.029 | 0.306 ± 0.015 | 0.247 ± 0.026 | 0.229 ± 0.02 | 0.257 ± 0.03 | 0.334 ± 0.022 | 1.07 ± 0.14 | 0.949 ± 0.012 | 0.985 ± 0.052 | 0.881 ± 0.036 | 0.68 ± 0.049 | 0.453 ± 0.015 | 0.3413 ± 0.0023 | 0.319 ± 0.0085
2 | KPD BONE | 0.953 ± 0.04 | 0.915 ± 0.055 | 0.96 ± 0.087 | 0.839 ± 0.093 | 0.5 ± 0.011 | 0.457 ± 0.035 | 0.445 ± 0.011 | 0.383 ± 0.026 | 0.955 ± 0.016 | 0.894 ± 0.047 | 1.02 ± 0.026 | 1.02 ± 0.1 | 0.944 ± 0.023 | 0.811 ± 0.047 | 0.393 ± 0.0087 | 0.292 ± 0.014
3 | NY BONE | 0.994 ± 0.019 | 0.964 ± 0.026 | 0.924 ± 0.075 | 0.437 ± 0.016 | 0.0393 ± 0.0031 | 0.035 ± 0.006 | 0.0417 ± 0.0074 | 0.0433 ± 0.0075 | 1.01 ± 0.033 | 1.01 ± 0.035 | 1.07 ± 0.032 | 1.09 ± 0.066 | 1.07 ± 0.05 | 1.06 ± 0.03 | 0.797 ± 0.033 | 0.592 ± 0.021
4 | MDAMB468 BREAST | 1.02 ± 0.065 | 0.929 ± 0.019 | 0.645 ± 0.025 | 0.379 ± 0.041 | 0.0613 ± 0.007 | 0.0593 ± 0.005 | 0.117 ± 0.016 | 0.177 ± 0.0095 | 1.1 ± 0.11 | 1.06 ± 0.013 | 1.14 ± 0.065 | 1.13 ± 0.038 | 1.15 ± 0.12 | 1.25 ± 0.089 | 1.09 ± 0.072 | 0.937 ± 0.19
5 | BT549 BREAST | 1.13 ± 0.039 | 1.21 ± 0.15 | 0.934 ± 0.12 | 0.618 ± 0.099 | 0.146 ± 0.037 | 0.132 ± 0.023 | 0.154 ± 0.043 | 0.158 ± 0.018 | 0.976 ± 0.13 | 1.15 ± 0.075 | 1.06 ± 0.13 | 1.05 ± 0.12 | 0.939 ± 0.069 | 0.907 ± 0.13 | 0.32 ± 0.027 | 0.198 ± 0.034
6 | SCC90 HEADNECK | 1.04 ± 0.072 | 1.04 ± 0.06 | 1.01 ± 0.12 | 0.616 ± 0.066 | 0.126 ± 0.0029 | 0.099 ± 0.0066 | 0.097 ± 0.01 | 0.106 ± 0.015 | 1.02 ± 0.099 | 1.11 ± 0.12 | 1.18 ± 0.092 | 1.2 ± 0.2 | 1.22 ± 0.15 | 1.13 ± 0.13 | 0.999 ± 0.18 | 0.878 ± 0.21
7 | U2OS BONE | 1.09 ± 0.022 | 1.03 ± 0.044 | 0.993 ± 0.032 | 0.954 ± 0.04 | 0.569 ± 0.036 | 0.273 ± 0.023 | 0.116 ± 0.0097 | 0.0883 ± 0.012 | 1.03 ± 0.034 | 1.02 ± 0.062 | 1.05 ± 0.025 | 1.047 ± 0.009 | 1.022 ± 0.0045 | 0.867 ± 0.057 | 0.56 ± 0.026 | 0.546 ± 0.021
8 | SUM149.B1*.S BREAST | 1.11 ± 0.042 | 1.06 ± 0.05 | 1.09 ± 0.057 | 0.994 ± 0.015 | 0.338 ± 0.038 | 0.154 ± 0.017 | 0.171 ± 0.019 | 0.193 ± 0.0067 | 1.1 ± 0.042 | 1.1 ± 0.053 | 1.11 ± 0.017 | 1.12 ± 0.07 | 1.08 ± 0.03 | 1.043 ± 0.0053 | 0.445 ± 0.0065 | 0.343 ± 0.013
9 | MG63 BONE | 1.02 ± 0.025 | 1 ± 0.043 | 1.06 ± 0.02 | 1 ± 0.023 | 0.07 ± 0.0095 | 0.0503 ± 0.014 | 0.0683 ± 0.0071 | 0.065 ± 0.0046 | 1.01 ± 0.033 | 0.998 ± 0.038 | 1.05 ± 0.059 | 1.06 ± 0.036 | 1.06 ± 0.052 | 1.05 ± 0.066 | 0.778 ± 0.043 | 0.265 ± 0.016
10 | MDAMB134 BREAST | 0.97 ± 0.1 | 0.842 ± 0.025 | 0.751 ± 0.072 | 0.691 ± 0.082 | 0.728 ± 0.016 | 0.708 ± 0.05 | 0.69 ± 0.085 | 0.767 ± 0.091 | 1.08 ± 0.13 | 1.187 ± 0.0057 | 0.994 ± 0.13 | 0.992 ± 0.099 | 1.03 ± 0.19 | 1.12 ± 0.17 | 1.11 ± 0.065 | 1.02 ± 0.055
11 | SG32 HEADNECK | 1.32 ± 0.21 | 1.18 ± 0.3 | 0.81 ± 0.042 | 0.621 ± 0.047 | 0.258 ± 0.041 | 0.302 ± 0.053 | 0.409 ± 0.076 | 0.437 ± 0.048 | 1.23 ± 0.076 | 1.3 ± 0.13 | 1.37 ± 0.11 | 1.2 ± 0.17 | 1.1 ± 0.098 | 1 ± 0.14 | 0.726 ± 0.042 | 0.608 ± 0.11
12 | HCC70 BREAST | 1.04 ± 0.032 | 1.01 ± 0.014 | 0.937 ± 0.042 | 0.752 ± 0.029 | 0.108 ± 0.012 | 0.129 ± 0.013 | 0.131 ± 0.015 | 0.132 ± 0.02 | 1.05 ± 0.078 | 0.995 ± 0.053 | 1.08 ± 0.044 | 1.09 ± 0.1 | 0.991 ± 0.13 | 1.09 ± 0.09 | 0.785 ± 0.077 | 0.578 ± 0.016
13 | SIHA CERVIX | 1.09 ± 0.064 | 1.14 ± 0.13 | 1.12 ± 0.027 | 1.03 ± 0.064 | 0.324 ± 0.016 | 0.277 ± 0.085 | 0.341 ± 0.022 | 0.327 ± 0.055 | 1.07 ± 0.041 | 1.036 ± 0.0067 | 1.08 ± 0.12 | 1.11 ± 0.069 | 1.12 ± 0.049 | 1.16 ± 0.11 | 0.863 ± 0.058 | 0.684 ± 0.018
14 | HSSYII SYNOVIAL | 0.891 ± 0.082 | 0.836 ± 0.032 | 0.308 ± 0.033 | 0.0998 ± 0.006 | 0.0498 ± 0.003 | 0.0455 ± 0.0052 | 0.0458 ± 0.002 | 0.0588 ± 0.0063 | 0.995 ± 0.045 | 0.972 ± 0.068 | 0.968 ± 0.049 | 0.971 ± 0.018 | 0.7943 ± 0.0045 | 0.59 ± 0.026 | 0.116 ± 0.0062 | 0.0892 ± 0.0041
15 | CADOES1 SOFT TISSUE | 0.972 ± 0.19 | 0.882 ± 0.043 | 0.928 ± 0.12 | 0.84 ± 0.073 | 0.877 ± 0.12 | 0.825 ± 0.038 | 0.201 ± 0.013 | 0.0913 ± 0.0064 | 0.948 ± 0.12 | 0.908 ± 0.12 | 0.966 ± 0.04 | 0.97 ± 0.024 | 0.819 ± 0.048 | 0.977 ± 0.023 | 0.735 ± 0.053 | 0.528 ± 0.069
16 | ZR751 BREAST | 1.17 ± 0.19 | 1.07 ± 0.1 | 0.7 ± 0.1 | 0.472 ± 0.07 | 0.492 ± 0.054 | 0.431 ± 0.057 | 0.297 ± 0.064 | 0.263 ± 0.041 | 1.1 ± 0.04 | 1.1 ± 0.048 | 1.02 ± 0.067 | 1.05 ± 0.076 | 0.996 ± 0.022 | 0.968 ± 0.089 | 0.901 ± 0.078 | 0.7397 ± 0.007
